Laboratory results from patent publication US20230365592A1 (Agios Pharmaceuticals, Inc., priority 2022, published 2023).

What follows are compounds tested against T1, human PAH with the R408W mutation (Homo sapiens, UniProt P00439, R408W) (assay: Cell Based Phenylalanine Flux Assay). Settings: A375 cells expressing R408W PAH; 24 hrs with compound, then 20 µM sepiapterin and 800 µM 13C9,15N-Phenylalanine for 4 hours; 13C-Tyrosine by LC-MS; average where tested multiple times; read-out: AC50.
T1 construct: expressed in transfected cells
T1 sequence (P00439 1-452 R408W): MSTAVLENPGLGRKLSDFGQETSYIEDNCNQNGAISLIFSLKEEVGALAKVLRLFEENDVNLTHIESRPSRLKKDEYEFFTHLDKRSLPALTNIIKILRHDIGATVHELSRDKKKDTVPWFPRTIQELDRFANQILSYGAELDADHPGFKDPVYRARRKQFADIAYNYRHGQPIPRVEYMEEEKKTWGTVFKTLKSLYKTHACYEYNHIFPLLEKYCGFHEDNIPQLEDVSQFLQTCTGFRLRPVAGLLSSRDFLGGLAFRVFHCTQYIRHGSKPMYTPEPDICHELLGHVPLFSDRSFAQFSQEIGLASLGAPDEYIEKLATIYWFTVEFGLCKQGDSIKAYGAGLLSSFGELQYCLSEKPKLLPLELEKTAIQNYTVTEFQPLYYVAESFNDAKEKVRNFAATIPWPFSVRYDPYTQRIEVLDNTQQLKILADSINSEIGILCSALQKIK
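Note: after compound treatment, cells received sepiapterin plus isotope-labelled Phenylalanine for 4 hours, then labelled Tyrosine in the medium was quantified, 10-point 2-fold dilution series run in duplicate.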

| Structure (SMILES) | AC50 [µM] |
| --- | --- |
| O=C(c1cnn2cc(N3CCOCC3)ccc12)N1CCc2[nH]cnc2C1c1cc2cccc(C(F)(F)F)n2n1 (stereo not shown) | 1 to 5 |
| O=C(c1ocnc1C1CC1)N1CCc2[nH]cnc2C1c1cc2cccc(C(F)(F)F)n2n1 (stereo not shown) | 1 to 5 |
| CN(C)Cc1ccc2c(C(=O)N3CCc4[nH]cnc4C3c3cc4c(C(F)F)cccn4n3)cnn2c1 (stereo not shown) | 1 to 5 |
| O=C(Cc1nncs1)N1CCc2nc[nH]c2C1c1cc2ccccn2n1 (stereo not shown) | 1 to 5 |
| Fc1cccn2nc(C3c4nc[nH]c4CCN3c3nnc(-c4ncccn4)o3)cc12 (stereo not shown) | 1 to 5 |
| Fc1cccnc1-c1nnc(N2CCc3[nH]cnc3C2c2cc3c(C4CC4)cccn3n2)o1 (stereo not shown) | 1 to 5 |
| Cc1c(C2c3nc[nH]c3CCN2C(=O)c2nnc(C(C)(C)C)o2)nn2ccccc12 (stereo not shown) | 1 to 5 |
| Cc1cccc2cc(C3c4nc[nH]c4CCN3c3ncc(N)cn3)nn12 (stereo not shown) | 1 to 5 |
| Cc1cccc2cc(C3c4nc[nH]c4CCN3C(=O)c3cnn4cc(C5CC5)ccc34)nn12 (stereo not shown) | 1 to 5 |
| CC(C)(O)c1nnc(C(=O)N2CCc3[nH]cnc3C2c2cc3ccc(C(F)(F)F)cn3n2)o1 (stereo not shown) | 1 to 5 |
| COc1cccn2nc([C@H]3c4nc[nH]c4CCN3C(=O)c3cc(C(C)(C)C)nn3C)cc12 (single isomer, unassigned) | > 5 |

Same assay, conditions: A375 cells expressing human PAH R408W; 24 hrs compound incubation; 13C-Tyrosine by LC-MS; average where tested multiple times; read-out: AC50

| Structure (SMILES) | AC50 [µM] |
| --- | --- |
| O=C(c1cnn(CC(F)(F)F)c1C(F)F)N1CCc2[nH]cnc2[C@H]1c1cc2ccccn2n1 [Example 2368, (S)-(5-(difluoromethyl)-1-(2,2,2-trifluoroethyl)-1H-pyrazol-4-yl)(4-(pyrazolo[1,5-a]pyridin-2-yl)-6,7-dihydro-1H-imidazo[4,5-c]pyridin-5(4H)-yl)methanone] | 1 to 5 |
| Cn1nc(C(F)(F)F)nc1C(=O)N1CCc2[nH]cnc2[C@@H]1c1cc2c(F)cccn2n1 [Example 2399, (R)-(4-(4-fluoropyrazolo[1,5-a]pyridin-2-yl)-6,7-dihydro-1H-imidazo[4,5-c]pyridin-5(4H)-yl)(1-methyl-3-(trifluoromethyl)-1H-1,2,4-triazol-5-yl)methanone] | 1 to 5 |
| CC(C)c1cccn2nc([C@@H]3c4nc[nH]c4CCN3C(=O)c3nnc(-c4ccccn4)o3)cc12 [Example 1905, (S)-(4-(4-isopropylpyrazolo[1,5-a]pyridin-2-yl)-1,4,6,7-tetrahydro-5H-imidazo[4,5-c]pyridin-5-yl)(5-(pyridin-2-yl)-1,3,4-oxadiazol-2-yl)methanone] | < 0.5 |
| FC(F)c1nnc(N2CCc3[nH]cnc3[C@@H]2c2cc3c(C4CC4)cccn3n2)o1 [Example 2166, (R)-2-(4-(4-cyclopropylpyrazolo[1,5-a]pyridin-2-yl)-1,4,6,7-tetrahydro-5H-imidazo[4,5-c]pyridin-5-yl)-5-(difluoromethyl)-1,3,4-oxadiazole] | > 5 |

Same assay, conditions: A375 cells expressing human R408W PAH; 24 hrs compound incubation; 13C-Tyrosine by LC-MS; average where tested multiple times; read-out: AC50

| Structure (SMILES) | AC50 [µM] |
| --- | --- |
| Cc1ncoc1C(=O)N1CCc2[nH]cnc2[C@@H]1c1cc2c(F)cccn2n1 [Example 775, (R)-(4-(4-fluoropyrazolo[1,5-a]pyridin-2-yl)-6,7-dihydro-1H-imidazo[4,5-c]pyridin-5(4H)-yl)(4-methyloxazol-5-yl)methanone] | > 5 |
| O=C(c1oc(C2(O)CC2)nc1C(F)F)N1CCc2[nH]cnc2[C@H]1c1cc2c(F)cccn2n1 [Example 1234, (S)-(4-(difluoromethyl)-2-(1-hydroxycyclopropyl)oxazol-5-yl)(4-(4-fluoropyrazolo[1,5-a]pyridin-2-yl)-6,7-dihydro-1H-imidazo[4,5-c]pyridin-5(4H)-yl)methanone] | < 0.5 |
| CC1(c2nnc(C(=O)N3CCc4[nH]cnc4[C@H]3c3cc4c(F)cccn4n3)o2)CC1 [Example 1378, (S)-(4-(4-fluoropyrazolo[1,5-a]pyridin-2-yl)-6,7-dihydro-1H-imidazo[4,5-c]pyridin-5(4H)-yl)(5-(1-methylcyclopropyl)-1,3,4-oxadiazol-2-yl)methanone] | < 0.5 |
| Cc1ccc2c(C(=O)N3CCc4[nH]cnc4[C@@H]3c3cc4c(C(F)F)cccn4n3)cnn2c1 [Example 1713, (R)-(4-(4-(difluoromethyl)pyrazolo[1,5-a]pyridin-2-yl)-6,7-dihydro-1H-imidazo[4,5-c]pyridin-5(4H)-yl)(6-methylpyrazolo[1,5-a]pyridin-3-yl)methanone] | > 5 |
| O=C(c1nnc(-c2ncccc2F)o1)N1CCc2[nH]cnc2[C@@H]1c1cc2c(C(F)(F)F)cccn2n1 [Example 904, (R)-(5-(3-fluoropyridin-2-yl)-1,3,4-oxadiazol-2-yl)(4-(4-(trifluoromethyl)pyrazolo[1,5-a]pyridin-2-yl)-6,7-dihydro-1H-imidazo[4,5-c]pyridin-5(4H)-yl)methanone] | > 5 |
| Cc1cnn(C)c1-c1nnc(C(=O)N2CCc3[nH]cnc3[C@H]2c2cc3cccc(C(F)F)n3n2)o1 [Example 1584, (S)-(4-(7-(difluoromethyl)pyrazolo[1,5-a]pyridin-2-yl)-6,7-dihydro-1H-imidazo[4,5-c]pyridin-5(4H)-yl)(5-(1,4-dimethyl-1H-pyrazol-5-yl)-1,3,4-oxadiazol-2-yl)methanone] | 0.5 to 1 |
| Cn1nc(C(F)(F)F)nc1C(=O)N1CCc2[nH]cnc2[C@@H]1c1cc2c(Cl)cccn2n1 [Example 1053, (R)-(4-(4-chloropyrazolo[1,5-a]pyridin-2-yl)-6,7-dihydro-1H-imidazo[4,5-c]pyridin-5(4H)-yl)(1-methyl-3-(trifluoromethyl)-1H-1,2,4-triazol-5-yl)methanone] | 1 to 5 |
| Cn1cc(-c2nnc(C(=O)N3CCc4[nH]cnc4[C@H]3c3cc4ccc(Cl)cn4n3)o2)cn1 [Example 696, (S)-(4-(6-chloropyrazolo[1,5-a]pyridin-2-yl)-6,7-dihydro-1H-imidazo[4,5-c]pyridin-5(4H)-yl)(5-(1-methyl-1H-pyrazol-4-yl)-1,3,4-oxadiazol-2-yl)methanone] | < 0.5 |
| Cc1cccn2nc([C@H]3c4nc[nH]c4CCN3C(=O)c3oc(-c4cn(C)cn4)nc3C(F)F)cc12 [Example 930, (R)-(4-(difluoromethyl)-2-(1-methyl-1H-imidazol-4-yl)oxazol-5-yl)(4-(4-methylpyrazolo[1,5-a]pyridin-2-yl)-6,7-dihydro-1H-imidazo[4,5-c]pyridin-5(4H)-yl)methanone] | > 5 |
| Fc1cccn2nc([C@@H]3c4nc[nH]c4CCN3c3nnc(-c4ccccn4)o3)cc12 [Example 1613, (S)-2-(4-(4-fluoropyrazolo[1,5-a]pyridin-2-yl)-6,7-dihydro-1H-imidazo[4,5-c]pyridin-5(4H)-yl)-5-(pyridin-2-yl)-1,3,4-oxadiazole] | < 0.5 |
| Cc1cccc2cc([C@H]3c4nc[nH]c4CCN3C(=O)c3nnc(-c4cnn(C)c4)o3)nn12 [Example 801, (R)-(5-(1-methyl-1H-pyrazol-4-yl)-1,3,4-oxadiazol-2-yl)(4-(7-methylpyrazolo[1,5-a]pyridin-2-yl)-6,7-dihydro-1H-imidazo[4,5-c]pyridin-5(4H)-yl)methanone] | > 5 |
| Cc1cccn2nc([C@H]3c4nc[nH]c4CCN3c3ncc(C(F)(F)F)cn3)cc12 [Example 1755, (R)-4-(4-methylpyrazolo[1,5-a]pyridin-2-yl)-5-(5-(trifluoromethyl)pyrimidin-2-yl)-4,5,6,7-tetrahydro-1H-imidazo[4,5-c]pyridine] | > 5 |
| Cn1cnc(-c2nnc(C(=O)N3CCc4[nH]cnc4[C@H]3c3cc4cccc(C(F)(F)F)n4n3)o2)c1 [Example 1032, (S)-(5-(1-methyl-1H-imidazol-4-yl)-1,3,4-oxadiazol-2-yl)(4-(7-(trifluoromethyl)pyrazolo[1,5-a]pyridin-2-yl)-6,7-dihydro-1H-imidazo(4,5-c]pyridin-5(4H)-yl)methanone] | 0.5 to 1 |
